Our source for the solubility values is patent US20040192617A1, “Process for preparing phenolic acid salts of gabapentin” (priority 2003, published 2004).

The nature of data set [1]: Solubility of the tannate salt, seen as precipitation from the reaction solution. The following applies: water/ethanol mixture, room temperature; salt precipitates from solution. It counts as physicochemical. The procedure:
The completeness of the reaction and the formation of the tannate salt were followed by taking samples at different stages of the conversion process. Due to the large size of the tannate salt, it usually precipitates from solution upon formation. The absence or loss of gabapentin from solution is correlated with the formation of the tannate salt.
The conversion process used in this example to synthesize the tannate salt of gabapentin is done at room temperature as follows: 250 ml of purified water and 50 ml of ethanol are placed in a beaker. While mixing the water/ethanol mixture, tannic acid is added and mixing is continued to form a solution. While mixing the tannic acid solution, gabapentin powder is added slowly. The gabapentin reacts with the tannic acid to form the tannate salt. […] The ratio of tannic acid to gabapentin used is 0.8:1.

The conditions of data set [2]: in water and across a wide range of pH; cited from earlier work.

Like-named read-outs stand apart in the source and are kept apart here.

Turning to gabapentin tannate, the solubility result in data set [1] is “low solubility”.
Take `NCC1(CC(=O)O)CCCCC1` [Gabapentin, 1-(aminomethyl) cyclohexaneacetic acid]: in data set [2], the solubility entry was “freely soluble”.
